Reference: publication PMC12384096, “TabsPBP2, a Pheromone-Binding Protein Highly Expressed in Male Antennae of Tuta absoluta, Binds Sex Pheromones and Tomato Volatiles” (Biomolecules, 2025)

Legend:
TabsPBP2 = assay: Competitive fluorescence binding assay with 1-NPN probe; design: species or system Tuta absoluta; conditions: competitive displacement of 1-NPN (2 µM), 2 μM TabsPBP2, pH 7.4; for Ki: calculated from IC50
Protocol: Fluorescence binding assays were performed on a Cary Eclipse Fluorescence Spectrophotometer (Agilent Technologies, Palo Alto, CA, USA) to quantify TabsPBP2’s binding affinity for sex pheromones and tomato volatiles. Using n-phenyl-1-naphthylamine (1-NPN) as a fluorescent probe (1 mM in methanol), 2 μM TabsPBP2 (in 50 mM Tris-HCl, pH 7.4) were titrated with 1-NPN (2–16 µM). Fluorescence was excited at 337 nm with emission scanned from 350 and 500 nm. Ligand binding affinities were measured via competitive assays with 1-NPN (2 µM). Titration ranges: 0.5–4 μM (sex pheromones) and 2–50 μM (tomato volatiles). The binding constant (K1-NPN) for 1-NPN was calculated, followed by calculation of the dissociation constant (Ki) from IC50 values using the equation: Ki = [IC50]/(1 + [1-NPN]/K1-NPN), where [1-NPN] represents the free concentration of 1-NPN.

T. absoluta females = test system: T. absoluta females; design: method as in PMID 29404818; conditions: cited from earlier work
adult T. absoluta = test system: adult T. absoluta; design: method as in doi:10.1127/entomologia/2024/2399; conditions: cited from earlier work

IC50 (TabsPBP2)	Ki (TabsPBP2)	SMILES	EAG responses in females (T. absoluta females)	behavioral effect on adult T. absoluta (adult T. absoluta)
19.5 ± 2.39 µM	13.7 ± 1.9 µM	CC/C=C\CCO [cis-3-hexen-l-ol, cis-3-Hexen-l-ol]	elicit EAG responses	
7.47 ± 1.2 µM	5.5 ± 0.92 µM	CC1=CC2C(CC1)C2(C)C (stereo not shown) [2-carene, 2-Carene]		
6.22 ± 0.85 µM	4.68 ± 0.66 µM	C=CC(=C)CCC=C(C)C [myrcene, Myrcene]	elicit EAG responses	repel
18.6 ± 1.38 µM	13 ± 1.23 µM	COC(=O)c1ccccc1O [methyl salicylate, Methyl salicylate]	elicit EAG responses	repel
9.98 ± 0.98 µM	7.48 ± 0.57 µM	CC1=CCC2CC1C2(C)C (stereo not drawn) [α-pinene, α-Pinene]		
13.6 ± 1.85 µM	11.4 ± 1.88 µM	C=C1CCC2(C(C)C)CC12 (stereo not shown) [sabinene, Sabinene]		

SMILES	IC50 (TabsPBP2)	Ki (TabsPBP2)	EAG responses in females (T. absoluta females)	behavioral effect on adult T. absoluta (adult T. absoluta)
CC1=CC=C(C(C)C)CC1 [α-terpinene, α-Terpinene]	14.6 ± 5.16 µM	10.2 ± 3.6 µM		
